Measurements published in patent US10363261B2, “Enolase inhibitors and methods of treatment therewith” (Board of Regents, The University of Texas System, priority 2015, dated 2019).

Key:
[1] = tested on: Gli56 ENO1-deleted glioma cells; test: Cell proliferation by Incucyte, ten days; assay type: cell-based, human
Method: Cell proliferation of glioma cell lines was assayed either through crystal violet staining or by live-cell confluence measurements with the IncuCyte (Essen BioScience). Growth curves using the IncuCyte were generated by confluence imaging every 4 hours with duplicate replicates with an initial seeding of 1500 cells/well in 96-well plates. At the indicated time point, cells were fixed with 10% formalin and stained with crystal violet. Dye extraction was performed using 10% acetic acid solution, and absorbance was read at 595 nm. Apoptotic cells were counted by staining with YO-PRO®-1 Iodide (491/509, Life Technologies, Y3603). Apoptotic cells become permeable to YO-PRO®-1 while live cells are not stained. Alternatively, Propidium Iodide was employed (Life Technologies) instead of YO-PRO. Total cell number was quantified by Hoechst 33342 (Cat# H3570 Invitrogen). Cells were seeded as 2×10^3 cells/well in 96-well plates and treated in the presence or absence of doxycycline. […] Image capture and quantification was done by High Content Screening System—Operetta (Perkin Elmer). ATP content was measured with the luciferase/luciferin CellTiter-Glo® assay. […] Lysis was achieved by the […] in the buffer and vigorous pipetting, and luminescence was determined using an Omega Luminescence Plate Reader (BMG Labtech). […]

[2] = tested on: ATP levels in D423 ENO1-deleted glioma cells; test: ATP content (CellTiter-Glo); assay type: cell-based, human; settings: 8 hours of treatment
Method: Cell proliferation of glioma cell lines was assayed either through crystal violet staining or by live-cell confluence measurements with the IncuCyte (Essen BioScience). Growth curves using the IncuCyte were generated by confluence imaging every 4 hours with duplicate replicates with an initial seeding of 1500 cells/well in 96-well plates. At the indicated time point, cells were fixed with 10% formalin and stained with crystal violet. Dye extraction was performed using 10% acetic acid solution, and absorbance was read at 595 nm. Apoptotic cells were counted by staining with YO-PRO®-1 Iodide (491/509, Life Technologies, Y3603). Apoptotic cells become permeable to YO-PRO®-1 while live cells are not stained. Alternatively, Propidium Iodide was employed (Life Technologies) instead of YO-PRO. Total cell number was quantified by Hoechst 33342 (Cat# H3570 Invitrogen). Cells were seeded as 2×10^3 cells/well in 96-well plates and treated in the presence or absence of doxycycline. On the day of apoptosis survey, old media was removed and each well was filled to 100 μl with fresh media. Hoechst and YO-PRO®-1 were mixed in 1:100 PBS and 10 μl of the mixture was added in each well gently without touching the cells for a final dilution of 1:1000 from stock. Plates were then incubated at 37° C. for 2 hours. Image capture and quantification was done by High Content Screening System—Operetta (Perkin Elmer). ATP content was measured with the luciferase/luciferin CellTiter-Glo® assay. Briefly, 100 μl of CellTiter-Glo® assay media was added to 96-well plates containing 100 μl of media and cells. Lysis was achieved by the […] in the buffer and vigorous pipetting, and luminescence was determined using an Omega Luminescence Plate Reader (BMG Labtech). Results were expressed relative to vehicle treated control.

[3] = Hematocrit / hemolytic anemia after IV administration
Description: Erythrocytes are sensitive to disruptions in the glycolytic cycle as glycolysis is the cell's only source of energy in the form of ATP.

enolase (ENO1 and ENO2) = test: Enolase inhibitory activity in vitro, isoform not distinguished (ENO1 and ENO2); assay type: biochemical, human; settings: isolated enzymatic assay
Method: Human ENO1 and ENO2 were overexpressed in the human D423 cell line and used for enzymatic assays. Inhibitors (PhAH, SF2312 and Deoxy-SF2312, Hex, Hepta, Pom-Hex, and Fosmidomycin) were incubated with the enzyme prior to addition of 5 mM 2-PG substrate. Enzymatic activity was measured by monitoring fluorescence of NADH at 340 nm Exitation/460 nm emission using an Lactate dehydrogenase/Pyruvate kinase linked assay which links the formation of PEP to the oxidation of NADH to NAD+, as we have described in published work (Muller et al., 2012). Enzymatic activity was normalized to that in the absence of the inhibitor (set to 1) and plotted as function of inhibitor concentration.
Enolase activity was measured using two different methods, either by a fluorometric NADH-linked assay or a direct spectrophotometric assay via formation of PEP. In the fluorescent assay, enolase activity was measured via NADH oxidation in a pyruvate kinase-lactate dehydrogenase coupled assay as previously described (Muller, et al., 2012). The assay is conducted in 10 mM KCl, 5 mM MgSO4, 100 mM triethanolamine at pH 7.4, with 400 μM NADH and 2 mM ADP. 2-Phosphoglycerate (2-PGA), pyruvate kinase (PK) and lactate dehydrogenase (LDH) are provided in excess, with conversion of 2-PGA to PEP by enolase being rate limiting. PEP (with ADP) is substrate of PK; pyruvate formed by this reaction is linked to NADH oxidation by LDH. Enolase activity is determined by measuring oxidation of NADH fluorescently by excitation at 340 nm and emission at 460 nm. The substrate concentration, if not otherwise indicated, was 5 mM 2-PGA. Fluorescence was measured using Omega Fluorescence Plate Reader (BMG Labtech). Alternatively, Enolase activity was measured directly by the appearance of PEP from 2-PGA via absorption at 240 nm (Marangos, et al., 1978). The assay medium was the same, except that all the auxiliary reagents (PK/LDH, NADH, ADP) are omitted. Both assays were conducted in a 96-well plated format with the direct assay performed in UV-transmissible plates.

[4] = tested on: Vinculin or Triosephosphate isomerase; test: Thermal shift assay, internal controls; assay type: binding, human
Method: Thermal shift assays were conducted as described in Martinez Molina, et al. (2013), on lysates of D423 cell line overexpressing ENO1 and ENO2, on recombinant human ENO1 and ENO2 purified from E. coli as well as intact D423 ENO2 overexpressing glioma cells. […] Lysates were diluted (1:100) in Enolase enzymatic activity buffer as mentioned above. Diluted lysates were treated with SF2312, PhAH or vehicle and heated on a C1000 Thermal cycler (Bio-rad) with a linear temperature gradient (50 to 82.5° C. in 2.5° C. increments) for 3 minutes (FIG. 24). The lysates were then centrifuged at 20,000 g for 10 minutes. Supernatant and pellet were then separated and NuPage LDS Sample buffer (Life Technologies # NP0007) was added. Western Blots were performed as described previously (Muller, et al., 2012). The following antibodies were used: ENO1 (Abcam # ab155102), ENO2 (Dako # M087301-2), Vinculin (EMD Millipore #05-386), pan-ENO (Santa Cruz Biotechnology, sc-7455) and TPI (Proteintech #10713-1-AP). Recombinant human ENO2: The same procedure was carried out on purified recombinant ENO2 from E. coli, utilizing the purified protein generated for the X-ray crystallography studies. […]

[5] = tested on: lactate/glucose in D423 ENO1-rescued glioma cells; test: 13C-NMR tracing of uniformly labeled 13C-glucose to 13C-lactate, rescued cells; settings: even at 200 μM
Method: Glucose labeled with heavy, non-radioactive, ^13C at carbon C-1 and ^13C at all carbon atoms were purchased from Cambridge Isotopes (CLM-420-1 and CLM-1396, respectively). Glucose free DMEM media was supplemented with 10 mM ^13C-1 or ^13C-all labeled Glucose. NMR metabolic tracing was performed by substituting conventional DMEM medium with glucose free DMEM medium, to which ^13C-1 glucose (Cambridge Isotopes) was supplemented at 10 mM. […] After 4 days, conditioned media was extracted with 80% methanol at −80° C., lyophilized and resuspended in D2O. Proton-decoupled ^13C NMR spectra were acquired using a 500 MHZ Bruker instrument in the M. D. Anderson NMR core facility.

SMILES: O=C1C(P(=O)(O)O)CC(O)N1O (racemic) [SF2312, 3-dihydroxyphosphoryl-1,5-dihydroxy-2-pyrrolidone]
- fold more potent at inhibiting proliferation of Gli56 ENO1-deleted cells compared to ENO1-intact glioma lines [1]: ≤ 128 fold
- concentration reducing ATP levels by >40% [2]: 12.5 µM
- fold more potent than PhAH at decreasing ATP levels [2]: ~8 fold
- hematocrit after treatment (drop from 45%) ([3]; 100 mg/kg IV for longer than a week): 29%
- dose at which mild hemolytic anemia can be observed ([3]; as low as): 50 mg/kg
- IC50 lower than that of PhAH (enolase (ENO1 and ENO2)): about 50%
- effect on the thermal stability of the internal controls [4]: neither PhAH nor SF2312 had any effect
- effect on lactate/glucose in ENO1-rescued cells [5]: neither PhAH nor SF2312 decreased lactate/glucose
